Test results taken from patent US20090264415A2 (priority 2004, published 2009).
pIC50: −log10 of the molar value. Where two headings read alike, the source gives them in different places.

System: peripheral blood mononuclear cells (PBMC) stimulated with allogeneic PBMC or EBV-transformed human B cells (RPMI1788)
Test: Mixed lymphocyte reaction (MLR) assay
Type: cell-based
Protocol: Pyrido[3,2-d]pyrimidine derivatives were first dissolved (10 mM) in dimethyl-sulfoxide (hereinafter referred as DMSO) and further diluted in culture medium before use for the following in vitro experiments. […] Some pyrido[3,2-d]pyrimidine derivatives described herein were tested in the following mixed lymphocyte reaction (MLR) assay.
Peripheral blood mononuclear cells (hereinafter referred as PBMC) were isolated from heparinized peripheral blood by density gradient centrifugation over Lymphoprep (Nycomed, Maorstua, Norway). Allogeneic PBMC or Eppstein-Barr Virus-transformed human B cells [commercially available under the trade name RPM11788 (ATCC name CCL156)] which strongly express B7-1 and B7-2 antigens were used as stimulator cells after irradiation with 30 Gy. MLR was performed in triplicate wells. After 5 days incubation at 37° C., 1 μCi [^3H]-thymidine was added to each cup. After a further 16 hours incubation, cells were harvested and counted in a β-counter. Inhibition of proliferation by a compound described in some of the present examples was counted while using the formula: [formula] wherein cpm is the thymidine count per minute. The MLR assay is regarded by those skilled in the art as an in vitro analogue of the transplant rejection since it is based on the recognition of allogeneic major histocompatibility antigens on the stimulator leukocytes, by responding lymphocytes.

[1] = Homo sapiens, RPMI-1788, MLR assay of example 319, read-out: MLR IC50
[2] = 50% suppression of the MLR, [3H]-thymidine incorporation, read-out: MLR

Work on Cc1csc(-c2ccc3nc(N)nc(N4CCN(C(=O)COc5ccc(Cl)cc5)CC4)c3n2)c1 [Example 511, 2-amino-4-[N-(4-chlorophenoxyacetyl)-piperazin-1-yl]-6-(4-methyl-2-thienyl)-pyrido(3,2-d)pyrimidine] yielded a pIC50 [1] of 7.27.

O=C(COc1ccc(Cl)cc1)N1CCN(c2nc(NC3CCCC3)nc3ccc(-c4ccc(F)cc4)nc23)CC1 [Example 573, 2-cyclopentylamino-6-(4-fluorophenyl)-4-[N-(4-chlorophenoxyacetyl)-piperazin-1-yl]-pyrido[3,2-d]pyrimidine] gave a pIC50 [1] of 5.10.

Cc1cccc(NC(=O)N2CCC(Nc3nc(N)nc4ccc(-c5ccc(F)cc5)nc34)C2)c1 [Example 580, 2-amino-4-[1-(3-methylphenylcarbamoyl)-(S)-amino-pyrrolidin-3-yl]-6-(4-fluorophenyl)-pyrido(3,2-d)pyrimidine] showed a pIC50 [1] of 6.52.

For Nc1nc(N2CCN(CCOc3ccccc3)CC2)c2nc(-c3ccc(F)cc3)ccc2n1 [Example 205], the pIC50 [2] was 5.26.

With C[C@@H]1CN(C(=O)OC(C)(C)C)CCN1c1nc(N)nc2ccc(-c3ccc(F)cc3)nc12 [Example 481, (R)-4-[2-amino-6-(4-fluorophenyl)-pyrido[3,2-d]pyrimidin-4-yl]-3-methylpiperazine-1-carboxylic acid tert-butyl ester] the pIC50 [1] was < 5.00.

Nc1nc(N2CCN(C(=O)COc3ccc(Cl)cc3)CC2)c2nc(-c3ccsc3)ccc2n1 [Example 403, 2-amino-4-[4-(4-chlorophenoxyacetyl)piperazin-1-yl]-6-(thiophen-3-yl)pyrido-[3,2-d]pyrimidine] was tested, and the pIC50 [1] was 7.40.

Work on Nc1nc(N2CCN(C(=O)COc3ccc(Cl)cc3)CC2)c2nc(-c3c(F)cccc3F)ccc2n1 [Example 428, 2-amino-4-[4-(4-chlorophenoxyacetyl)piperazin-1-yl]-6-(2,6-difluorophenyl)pyrido-[3,2-d]pyrimidine] yielded a pIC50 [1] of 6.52.

In the case of CCCCNC(=O)N1CCN(c2nc(N)nc3ccc(-c4ccc(F)cc4)nc23)CC1 [Example 451, 2-amino-4-[4-(N-butylcarbamoyl)-piperazin-1-yl]-6-(4-fluorophenyl)-pyrido[3,2-d]pyrimidine], the pIC50 [1] was 6.70.

Compound Nc1nc(N2CCN(C(=O)COc3ccc(Cl)cc3)CC2)c2nc(-c3ccc4[nH]ccc4c3)ccc2n1 [Example 412, 2-amino-4-[4-(4-chlorophenoxyacetyl)piperazin-1-yl]-6-(indol-5-yl)pyrido-[3,2-d]pyrimidine] has a pIC50 [1] of 7.41.

Nc1nc(N2CCN(CC(=O)OCc3ccc(Cl)cc3)CC2)c2nc(-c3ccc(F)cc3)ccc2n1 [Example 475, {4-[2-amino-6-(4-fluorophenyl)-pyrido[3,2-d]pyrimidin-4-yl]-piperazin-1-yl}-acetic acid 4-chloro-benzyl ester] was tested, and the pIC50 [1] was 5.38.

With COc1ccc(-c2ccc3nc(OCCOc4ccccc4)nc(N4CCN(C(=O)Nc5cccc(C)c5)CC4)c3n2)cc1OC [Example 18] the pIC50 [2] was 6.05.

C[C@H]1CN(C(=O)COc2ccc(Cl)cc2)CCN1c1nc(N)nc2ccc(-c3ccc(F)cc3)nc12 [Example 489, (S)-2-amino-4-[4-(4-chlorophenoxyacetyl)-2-methylpiperazin-1-yl]-6-(4-fluorophenyl)-pyrido[3,2-d]pyrimidine] gave a pIC50 [1] of 8.30.

COc1ccc(-c2ccc3nc(N)nc(N4CCN(C(=O)COc5ccc(Cl)cc5)CC4)c3n2)cc1C [Example 509, 2-amino-4-[N-(4-chlorophenoxyacetyl)-piperazin-1-yl]-6-(3-methyl-4-methoxyphenyl)-pyrido(3,2-d)pyrimidine] was tested, and the pIC50 [1] was 7.51.

Compound Nc1nc(N2CCN(C(=O)COc3ccc(Cl)cc3)CC2)c2nc(-c3ccc(F)c(F)c3)ccc2n1 [Example 404, 2-amino-4-[4-(4-chlorophenoxyacetyl)piperazin-1-yl]-6-(3,4-difluorophenyl)pyrido-[3,2-d]pyrimidine] has a pIC50 [1] of 7.40.

Compound CSc1ccc(-c2ccc3nc(N)nc(N4CCN(C(=O)COc5ccc(Cl)cc5)CC4)c3n2)cc1 [Example 495, 2-amino-4-[N-(4-chlorophenoxyacetyl)-piperazin-1-yl]-6-(4-methylthiophenyl)-pyrido(3,2-d)pyrimidine] has a pIC50 [1] of 7.66.

Nc1nc(N2CCN(C(=O)COc3ccc(Cl)cc3)CC2)c2nc(-c3ccc(C(=O)O)s3)ccc2n1 [Example 413, 2-amino-4-[4-(4-chlorophenoxyacetyl)piperazin-1-yl]-6-(2-carboxythiophen-5-yl)pyrido-[3,2-d]pyrimidine] was tested, and the pIC50 [1] was < 5.00.

Work on CCOc1ccc(-c2ccc3ncnc(N4CCN(C(=O)Nc5cccc(C)c5)CC4)c3n2)cc1F [Example 559, 4-[(3-methylphenylcarbamoyl)-piperazin-1-yl]-6-(3-fluoro-4-ethoxyphenyl)pyrido[3,2-d]pyrimidine] yielded a pIC50 [1] of 6.75.

Compound Cc1cccc(NC(=O)N2CCN(c3nc(N)nc4ccc(-c5c(F)cc(F)cc5F)nc34)CC2)c1 [Example 551, 2-amino-4-[(3-methylphenylcarbamoyl)-piperazin-1-yl]-6-(2,4,6-trifluoro-phenyl)-pyrido[3,2-d]pyrimidine] has a pIC50 [1] of 6.30.

Nc1nc(N2CCN(C(=O)COc3ccc(Cl)cc3)CC2)c2nc(-c3ccccc3F)ccc2n1 [Example 424, 2-amino-4-[4-(4-chlorophenoxyacetyl)piperazin-1-yl]-6-(2-fluorophenyl)pyrido-[3,2-d]pyrimidine] was tested, and the pIC50 [1] was 6.96.

With Cc1cccc(NC(=O)N2CCN(c3ncnc4ccc(-c5cc(F)c(F)c(F)c5)nc34)CC2)c1 [Example 561, 4-[(3-methylphenylcarbamoyl)-piperazin-1-yl]-6-(3,4,5-trifluorophenyl)pyrido[3,2-d]pyrimidine] the pIC50 [1] was 6.38.

With CNc1nc(N2CCN(C(=O)COc3ccc(Cl)cc3)CC2)c2nc(-c3ccc(F)cc3)ccc2n1 [Example 574, 2-methylamino-4-[N-(4-chlorophenoxyacetyl)-piperazin-1-yl]-6-(4-fluorophenyl)-pyrido[3,2-d]pyrimidine] the pIC50 [1] was 6.47.

COc1ccc(-c2ccc3nc(N)nc(N4CCN(C(=O)COc5ccc(Cl)cc5)CC4)c3n2)c(OC)c1 [Example 505, 2-amino-4-[N-(4-chlorophenoxyacetyl)-piperazin-1-yl]-6-(2,4-dimethoxyphenyl)-pyrido(3,2-d)pyrimidine] was tested, and the pIC50 [1] was 7.14.

Nc1nc(N2CCN(C(=O)COc3ccc(Cl)cc3)CC2)c2nc(-c3ccoc3)ccc2n1 [Example 402, 2-amino-4-[4-(4-chlorophenoxyacetyl)piperazin-1-yl]-6-(furan-3-yl)pyrido-[3,2-d]pyrimidine] gave a pIC50 [1] of 7.52.

Cc1cccc(NC(=O)N2CCN(c3nc(N)nc4ccc(Cl)nc34)CC2)c1 [Example 541, 2-amino-4-[(3-methylphenylcarbamoyl)-piperazin-1-yl]-6-chloro-pyrido[3,2-d]pyrimidine] showed a pIC50 [1] of 7.22.

Nc1nc(N2CCN(C(=O)COc3ccc(Cl)cc3)CC2)c2nc(-c3ccc(OC(F)(F)F)cc3)ccc2n1 [Example 439, 2-amino-4-[4-(4-chlorophenoxyacetyl)piperazin-1-yl]-6-(4-trifluoromethoxyphenyl)-pyrido-[3,2-d]pyrimidine] gave a pIC50 [1] of 6.52.

In the case of Cc1ccccc1-c1ccc2nc(N)nc(N3CCN(C(=O)COc4ccc(Cl)cc4)CC3)c2n1 [Example 512, 2-amino-4-[N-(4-chlorophenoxyacetyl)-piperazin-1-yl]-6-(2-methyl-phenyl)-pyrido(3,2-d)pyrimidine], the pIC50 [1] was 8.10.

With Nc1nc(N2CCN(C(=O)COc3ccc(F)cc3)CC2)c2nc(-c3ccc(F)cc3)ccc2n1 [Example 387, 2-amino-4-[4-(4-fluorophenoxyacetyl)piperazin-1-yl]-6-(4-fluorophenyl)-pyrido[3,2-d]pyrimidine] the pIC50 [1] was 6.70.

With Cc1cccc(NC(=O)N2CCN(c3ncnc4ccc(-c5ccco5)nc34)CC2)c1 [Example 563, 4-[(3-methylphenylcarbamoyl)-piperazin-1-yl]-6-(2-furanyl)pyrido[3,2-d]pyrimidine] the pIC50 [1] was 7.44.

Compound Nc1nc(N2CCN(C(=O)CO)CC2)c2nc(-c3ccc(F)cc3)ccc2n1 [Example 437, 2-amino-4-[4-(2-hydroxyacetyl)piperazin-1-yl]-6-(4-fluorophenyl)-pyrido[3,2-d]pyrimidine] has a pIC50 [1] of 5.80.

With Nc1nc(N2CCN(C(=O)COc3ccc(Cl)cc3)CC2)c2nc(-c3ccc(OCc4ccccc4)c(F)c3)ccc2n1 [Example 513, 2-amino-4-[N-(4-chlorophenoxyacetyl)-piperazin-1-yl]-6-(3-fluoro-4-benzyloxy-phenyl)-pyrido(3,2-d)pyrimidine] the pIC50 [1] was < 5.00.

In the case of COc1ccc(-c2ccc3nc(N)nc(N4CCN(C(=O)CC(C)(C)C)CC4)c3n2)cc1OC [Example 392, 2-amino-4-[4-(3,3-dimethylbutyryl)piperazin-1-yl]-6-(3,4-dimethoxyphenyl)-pyrido[3,2-d]pyrimidine], the pIC50 [1] was 6.52.

In the case of Nc1nc(N2CCN(C(=O)COc3ccc(Br)cc3)CC2)c2nc(-c3ccc(F)cc3)ccc2n1 [Example 388, 2-amino-4-[4-(4-bromophenoxyacetyl)piperazin-1-yl]-6-(4-fluorophenyl)-pyrido[3,2-d]pyrimidine], the pIC50 [1] was 7.30.

Work on Nc1nc(N2CCN(C(=O)COc3ccc(Cl)cc3)CC2)c2nc(-c3ccc(CO)cc3)ccc2n1 [Example 441, 2-amino-4-[4-(4-chlorophenoxyacetyl)piperazin-1-yl]-6-[4-(hydroxymethyl)phenyl]pyrido-[3,2-d]pyrimidine] yielded a pIC50 [1] of 8.10.
